Measurements as given in patent US20070149515A1, “6-(2,4,6-Trifluorophenyl)-triazolopyrimidines, method for the production thereof, use thereof for controlling harmful fungi, and substances containing the same” (BASF Aktiengesellschaft, priority 2003, published 2007).

What was measured:
Sphaerotheca fuliginea = assay: Protective application against powdery mildew on cucumber leaves; type: in vivo; settings: 63 ppm, sprayed to runoff on cucumber seedlings 'Chinese Snake'; inoculated 20 hours after drying; assessed visually after 7 days; untreated plants 100% infected
Protocol: The active compounds were prepared separately or together as a stock solution with 0.25% by weight of active compound in acetone or DMSO. 1% by weight of the emulsifier Uniperol® EL (wetting agent with an emulsifying and dispersing action based on ethoxylated alkylphenols) was added to this solution and appropriately diluted with water to the desired concentration. Use example 1—Activity in protective application against powdery mildew on cucumber leaves caused by Sphaerotheca fuliginea Leaves of pot-grown cucumber seedlings of the variety “Chinese Snake” in the cotyledon stage were sprayed to runoff point with an aqueous suspension in the active compound concentration given below. 20 hours after the spray coating had dried on, the plants were inoculated with an aqueous suspension of spores of powdery mildew of cucumber (Sphaerotheca fuliginea). The plants were subsequently cultivated for 7 days in a greenhouse at temperatures of between. 20 and 24° C. and a relative atmospheric humidity of 60 to 80%. The extent of mildew development was then determined visually in % of infection of the cotyledon area.

Pyrenophora teres = assay: 1 day protective application against net blotch of barley; type: in vivo; settings: 63 ppm, sprayed to runoff on barley seedlings; inoculated 24 hours after drying; assessed visually after 6 days; untreated plants 90% infected
Protocol: The active compounds were prepared separately or together as a stock solution with 0.25% by weight of active compound in acetone or DMSO. 1% by weight of the emulsifier Uniperol® EL (wetting agent with an emulsifying and dispersing action based on ethoxylated alkylphenols) was added to this solution and appropriately diluted with water to the desired concentration. Use example 2—Activity in 1 day protective application against net blotch of barley caused by Pyrenophora teres Leaves of pot-grown barley seedlings were sprayed to runoff point with an aqueous suspension in the active compound concentration given below. 24 hours after the spray coating had dried on, the test plants were inoculated with an aqueous suspension of spores of Pyrenophora [syn. Drechslera] teres, the causative agent of net blotch. The test plants were subsequently placed in a greenhouse at temperatures of between 20 and 24° C. and a relative atmospheric humidity of 95 to 100%. After 6 days, the extent of development of the disease was determined visually in % of infection of the total leaf area.

SMILES | extent of mildew development in % of infection of the cotyledon area (Sphaerotheca fuliginea) | extent of development of the disease in % of infection of the total leaf area (Pyrenophora teres)
CC1CCN(c2c(-c3c(F)cc(F)cc3F)c(C#N)nc3ncnn23)CC1 [Compound I-2, 5-cyano-6-(2,4,6-trifluorophenyl)-7-(4-methylpiperidinyl)[1,2,4]triazolo[1,5a]pyrimidine] | no infection | no infection
COc1nc2ncnn2c(N2CCC(C)CC2)c1-c1c(F)cc(F)cc1F [Compound I-5, 5-methoxy-6-(2,4,6-trifluorophenyl)-7-(4-methylpiperidinyl)[1,2,4]triazolo[1,5a]pyrimidine] | no infection | no infection
